Target: human CTPS1 (Homo sapiens (Human), UniProt P17812)
Test: hCTPS1 biochemical assay (ADP-Glo)
Conditions: hCTPS1 25 nM, ATP 120 uM, UTP 160 uM, GTP 60 uM, L-Glutamine 100 uM, 25 degrees C

Chain of human CTPS1 (P17812 whole entry): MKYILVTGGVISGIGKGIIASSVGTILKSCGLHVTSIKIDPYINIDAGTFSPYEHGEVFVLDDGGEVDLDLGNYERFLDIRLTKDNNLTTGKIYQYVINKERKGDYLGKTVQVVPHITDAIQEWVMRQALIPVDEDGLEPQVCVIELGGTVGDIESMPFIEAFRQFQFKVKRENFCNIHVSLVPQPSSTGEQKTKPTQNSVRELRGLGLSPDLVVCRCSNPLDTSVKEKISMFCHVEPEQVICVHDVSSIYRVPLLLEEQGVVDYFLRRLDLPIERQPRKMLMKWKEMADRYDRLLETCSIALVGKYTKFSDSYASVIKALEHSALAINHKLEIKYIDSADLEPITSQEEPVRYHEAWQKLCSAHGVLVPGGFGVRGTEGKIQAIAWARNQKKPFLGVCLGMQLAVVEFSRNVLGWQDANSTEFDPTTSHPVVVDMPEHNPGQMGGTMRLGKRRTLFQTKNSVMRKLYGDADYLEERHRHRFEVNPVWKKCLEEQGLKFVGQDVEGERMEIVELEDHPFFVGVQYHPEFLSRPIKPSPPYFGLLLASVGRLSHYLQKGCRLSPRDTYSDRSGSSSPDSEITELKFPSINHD

Row | Compound | IC50
1 | CCc1ccn2ncc(-c3cnc(C(=O)NCc4cc(NS(=O)(=O)C5CC5)ccn4)s3)cc12 [I-196, N-((4-(cyclopropanesulfonamido)pyridin-2-yl)methyl)-5-(5-ethylpyrrolo[1,2-b]pyridazin-3-yl)thiazole-2-carboxamide] | < 100 nM
2 | O=C(NCc1cc(NS(=O)(=O)C2CC2)ccn1)c1ncc(-c2cnn3ccc(C(F)(F)F)cc23)s1 [I-177] | < 100 nM
3 | O=C(NCc1cc(NS(=O)(=O)C2CC2)ccn1)c1ncc(-n2cnc3ccc(Cl)cc32)s1 [I-193, 5-(6-chloro-1H-benzo[d]imidazol-1-yl)-N-((4-(cyclopropanesulfonamido)pyridin-2-yl)methyl)thiazole-2-carboxamide] | 100 to 1000 nM
4 | CCOc1cncc(-c2ccc(C(=O)NCc3cc(NS(=O)(=O)C4CC4)cnn3)cc2)n1 [I-52, N-[(5-cyclopropanesulfonamidopyridazin-3-yl)methyl]-4-(6-ethoxypyrazin-2-yl) benzamide] | < 100 nM
5 | CCOc1cncc(-c2ccc(C(=O)N3CCC[C@@H]3c3cc(NS(=O)(=O)C4CC4)ccn3)cc2)n1 [I-77, (R)—N-(2-(1-(4-(6-ethoxypyrazin-2-yl)benzoyl)pyrrolidin-2-yl)pyridin-4-yl)cyclopropanesulfonamide] | 100 to 1000 nM
6 | CCOc1cncc(-c2ccc(C(=O)NCc3ccnc(NS(=O)(=O)C4CC4)c3)cc2)n1 [I-17, N-((2-(cyclopropanesulfonamido)pyridin-4-yl)methyl)-4-(6-ethoxypyrazin-2-yl)benzamide] | 100 to 1000 nM
7 | CC[C@@H](NC(=O)c1ncc(-c2cnn3ccc(Cl)cc23)s1)c1cc(NS(=O)(=O)C2CC2)ccn1 [I-151, (R)-5-(5-chloropyrazolo[1,5-a]pyridin-3-yl)-N-(1-(4-(cyclopropanesulfonamido)pyridin-2-yl)propyl)thiazole-2-carboxamide] | < 100 nM
8 | CCOc1cncc(-c2ccc(C(=O)NCc3nc(NS(=O)(=O)C4CC4)cs3)nc2)n1 [I-195, N-[(4-cyclopropanesulfonamido-1,3-thiazol-2-yl)methyl]-5-(6-ethoxypyrazin-2-yl)pyridine-2-carboxamide] | 100 to 1000 nM
9 | CCOc1cncc(-n2cnc(C(=O)NC3(c4cccc(NS(=O)(=O)C(F)F)c4)CC3)c2)n1 [I-283, N-[1-[3-(difluoromethanesulfonamido)phenyl]cyclopropyl]-1-(6-ethoxypyrazin-2-yl)imidazole-4-carboxamide] | < 100 nM
10 | CCOc1cncc(-c2cnc(C(=O)N[C@@H](CN3[C@@H]4COC[C@H]3C4)c3cc(NS(=O)(=O)C4CC4)ccn3)s2)n1 [I-114] | < 100 nM
11 | CCOc1cncc(-c2ccc(C(=O)NCc3cnnc(NS(=O)(=O)C4CC4)c3)nc2)n1 [I-246, N-[(6-cyclopropanesulfonamidopyridazin-4-yl)methyl]-5-(6-ethoxypyrazin-2-yl)pyridine-2-carboxamide] | < 100 nM
12 | CCOc1cncc(-c2cnc(C(=O)NC3(c4cccc(NS(=O)(=O)C(F)F)c4)CC3)s2)n1 [I-69, N-[1-[3-(difluoromethanesulfonamido)phenyl]cyclopropyl]-5-(6-ethoxypyrazin-2-yl)-1,3-thiazole-2-carboxamide] | < 100 nM
13 | CCOc1cncc(-c2ccc(NC(=O)[C@@](F)(CC)c3cc(NS(=O)(=O)C4CC4)ccn3)nc2)n1 [I-258, (R)-2-(4-(cyclopropanesulfonamido)pyridin-2-yl)-N-(5-(6-ethoxypyrazin-2-yl)pyridin-2-yl)-2-fluorobutanamide] | < 100 nM

Continued, values first:

Row | IC50 | Compound
14 | < 100 nM | CCOc1cncc(-c2cnc(C(=O)N[C@@H](CN3CCC(N(C)C)CC3)c3cc(NS(=O)(=O)C4CC4)ccn3)s2)n1 (single isomer, unassigned) [I-104]
15 | < 100 nM | CCOc1cncc(-c2cnc(C(=O)N[C@@H](CCN3CCCC3)c3cc(NS(=O)(=O)C4CC4)ccn3)s2)n1 [I-159, (S)—N-(1-(4-(cyclopropanesulfonamido)pyridin-2-yl)-3-(pyrrolidin-1-yl)propyl)-5-(6-ethoxypyrazin-2-yl)thiazole-2-carboxamide]
16 | < 100 nM | CCOc1cncc(-c2cnc(C(=O)NC(CN3CCCCC3)c3cc(NS(=O)(=O)C4CC4)ccn3)s2)n1 (centres unmarked) [I-224]
17 | < 100 nM | CCOc1cncc(-c2cnc(C(=O)NC(c3cc(NS(=O)(=O)C4CC4)ccn3)C3CCN(C)CC3)s2)n1 (centres unmarked) [I-146, N-((4-(cydopropanesulfonamido)pyridin-2-yl)(1-methylpiperidin-4-yl)methyl)-5-(6-ethoxypyrazin-2-yl)thiazole-2-carboxamide]
18 | < 100 nM | CCOc1cncc(-c2cnc(C(=O)NC(CCN3CC[C@@H](F)C3)c3cc(NS(=O)(=O)C4CC4)ccn3)s2)n1 (stereo partly drawn) [I-131, N-(1-(4-(cyclopropanesulfonamido)pyridin-2-yl)-3-((R)-3-fluoropyrrolidin-1-yl)propyl)-5-(6-ethoxypyrazin-2-yl)thiazole-2-carboxamide]
19 | < 100 nM | CCOc1cncc(-c2cnc(C(=O)NC(CCCN)c3cc(NS(=O)(=O)C4CC4)ccn3)s2)n1 (centres unmarked) [I-166, N-(4-amino-1-(4-(cyclopropanesulfonamido)pyridin-2-yl)butyl)-5-(6-ethoxypyrazin-2-yl)thiazole-2-carboxamide]
20 | < 100 nM | CCOc1cncc(-c2cnc(C(=O)N[C@H](CN3C[C@@H]4C[C@H]3CO4)c3cc(NS(=O)(=O)C4CC4)ccn3)s2)n1 (single isomer, unassigned) [I-101]
21 | < 100 nM | CCOC[C@@H](NC(=O)c1ncc(-c2cncc(OCC)n2)s1)c1cc(NS(=O)(=O)C2CC2)ccn1 [I-97, (S)—N-(1-(4-(cyclopropanesulfonamido)pyridin-2-yl)-2-ethoxyethyl)-5-(6-ethoxypyrazin-2-yl)thiazole-2-carboxamide]
22 | < 100 nM | CCOc1cncc(-c2cnc(C(=O)N[C@H](C[C@@H]3CCCCN3C)c3cc(NS(=O)(=O)C4CC4)ccn3)s2)n1 (single isomer, unassigned) [I-136]
23 | < 100 nM | CCOc1cncc(-c2cnc(C(=O)NC(CCN3CC[C@H](F)C3)c3cc(NS(=O)(=O)C4CC4)ccn3)s2)n1 (stereo partly drawn) [I-130, N-(1-(4-(cyclopropanesulfonamido)pyridin-2-yl)-3-((S)-3-fluoropyrrolidin-1-yl)propyl)-5-(6-ethoxypyrazin-2-yl)thiazole-2-carboxamide]
24 | ≥ 1000 nM | CCOc1cncc(-c2cnc(C(=O)NCc3cc(F)c(F)c(NS(=O)(=O)C4CC4)c3)s2)n1 [I-255, N-[(3-cyclopropanesulfonamido-4,5-difluorophenyl)methyl]-5-(6-ethoxypyrazin-2-yl)-1,3-thiazole-2-carboxamide]
25 | < 100 nM | CCOc1cncc(-c2cnc(C(=O)N[C@H](COC)c3cc(NS(=O)(=O)C4CC4)ccn3)s2)n1 [I-188]
26 | < 100 nM | CCOc1cncc(-c2cnc(C(=O)N[C@H](c3cc(NS(=O)(=O)C4CC4)ccn3)[C@H]3CCOC3)s2)n1 (single isomer, unassigned) [I-95]
27 | < 100 nM | CCOc1cncc(-c2cnc(C(=O)NC(CN3CCCC3)c3cc(NS(=O)(=O)C4CC4)ccn3)s2)n1 (centres unmarked) [I-208]
28 | < 100 nM | CCOc1cncc(-c2cnc(C(=O)N[C@@H](c3cc(NS(=O)(=O)C4CC4)ccn3)[C@H]3CCOC3)s2)n1 (single isomer, unassigned) [I-92]
29 | < 100 nM | CCOc1cncc(-c2cnc(C(=O)N[C@H](CN3CCNCC3)c3cc(NS(=O)(=O)C4CC4)ccn3)s2)n1 [I-205, (R)—N-(1-(4-(cyclopropanesulfonamido)pyridin-2-yl)-2-(piperazin-1-yl)ethyl)-5-(6-ethoxypyrazin-2-yl)thiazole-2-carboxamide]

Reference: patent US12331046B2, “CTPS1 inhibitors and uses thereof” (Nimbus Clotho, Inc., priority 2020, dated 2025)
